Results as given in PubChem BioAssay (NCI).
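48-hour exposure; five concentrations; linearly interpolated endpoints. TGI denotes the concentration required for complete inhibition of growth.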

Legend:
Assay in all cases: DTP human tumour cell line panel, 48 h
SK-MEL-5 melanoma = tested on: SK-MEL-5 melanoma
SF-295 CNS = tested on: SF-295 CNS
OVCAR-4 ovarian = tested on: OVCAR-4 ovarian
SW-620 colon = tested on: SW-620 colon
HOP-92 NSCLC = tested on: HOP-92 NSCLC
SNB-75 CNS = tested on: SNB-75 CNS
MDA-MB-231 breast = tested on: MDA-MB-231 breast
COLO 205 colon = tested on: COLO 205 colon
HCT-15 colon = tested on: HCT-15 colon
OVCAR-5 ovarian = tested on: OVCAR-5 ovarian
CCRF-CEM leukemia = tested on: CCRF-CEM leukemia
HCC-2998 colon = tested on: HCC-2998 colon
KM12 colon = tested on: KM12 colon
HCT-116 colon = tested on: HCT-116 colon
SN12C renal = tested on: SN12C renal
SNB-19 CNS = tested on: SNB-19 CNS
U251 CNS = tested on: U251 CNS
M14 melanoma = tested on: M14 melanoma
HL-60(TB) leukemia = tested on: HL-60(TB) leukemia
MCF7 breast = tested on: MCF7 breast
MOLT-4 leukemia = tested on: MOLT-4 leukemia
UACC-257 melanoma = tested on: UACC-257 melanoma
SK-MEL-28 melanoma = tested on: SK-MEL-28 melanoma
MDA-N = tested on: MDA-N
EKVX NSCLC = tested on: EKVX NSCLC
SR leukemia = tested on: SR leukemia
A498 renal = tested on: A498 renal
NCI-H522 lung = tested on: NCI-H522 lung
PC-3 prostate = tested on: PC-3 prostate
SK-MEL-2 melanoma = tested on: SK-MEL-2 melanoma
MDA-MB-435 = tested on: MDA-MB-435
OVCAR-8 ovarian = tested on: OVCAR-8 ovarian
HT29 colon = tested on: HT29 colon
UO-31 renal = tested on: UO-31 renal
SK-OV-3 ovarian = tested on: SK-OV-3 ovarian
A549 NSCLC = tested on: A549 NSCLC
OVCAR-3 ovarian = tested on: OVCAR-3 ovarian
NCI/ADR-RES ovarian = tested on: NCI/ADR-RES ovarian
HOP-62 NSCLC = tested on: HOP-62 NSCLC
SF-268 CNS = tested on: SF-268 CNS
LOX IMVI melanoma = tested on: LOX IMVI melanoma
UACC-62 melanoma = tested on: UACC-62 melanoma
MALME-3M melanoma = tested on: MALME-3M melanoma
CAKI-1 renal = tested on: CAKI-1 renal
NCI-H226 lung = tested on: NCI-H226 lung
SF-539 CNS = tested on: SF-539 CNS
NCI-H23 lung = tested on: NCI-H23 lung
DU-145 prostate = tested on: DU-145 prostate
ACHN renal = tested on: ACHN renal
K-562 leukemia = tested on: K-562 leukemia
786-0 renal = tested on: 786-0 renal
RXF 393 renal = tested on: RXF 393 renal
IGROV1 ovarian = tested on: IGROV1 ovarian
T-47D breast = tested on: T-47D breast
NCI-H460 lung = tested on: NCI-H460 lung

CC(C)CNC(=O)CCc1cccc2c1oc1c(CCN)cccc12
TGI (SK-MEL-5 melanoma): 27.2 µM | TGI (SF-295 CNS): 31.6 µM | TGI (OVCAR-4 ovarian): 34 µM | TGI (SW-620 colon): 27.5 µM | TGI (HOP-92 NSCLC): 22.7 µM | TGI (SNB-75 CNS): 20.1 µM | TGI (MDA-MB-231 breast): 31.6 µM | TGI (COLO 205 colon): 19.7 µM | TGI (HCT-15 colon): 43 µM | TGI (OVCAR-5 ovarian): 28.7 µM | TGI (CCRF-CEM leukemia): 17.6 µM | TGI (HCC-2998 colon): 29.3 µM | TGI (KM12 colon): 28.4 µM | TGI (HCT-116 colon): 21.5 µM | TGI (SN12C renal): 32.2 µM | TGI (SNB-19 CNS): 15.9 µM | TGI (U251 CNS): 18.9 µM | TGI (M14 melanoma): 30.5 µM | TGI (HL-60(TB) leukemia): 13.3 µM | TGI (MCF7 breast): 46.1 µM | TGI (MOLT-4 leukemia): 30.7 µM | TGI (UACC-257 melanoma): 24.8 µM | TGI (SK-MEL-28 melanoma): 23.8 µM | TGI (MDA-N): 40.5 µM | TGI (EKVX NSCLC): 27.6 µM | TGI (SR leukemia): 29 µM | TGI (A498 renal): 32.3 µM | TGI (NCI-H522 lung): 29.6 µM | TGI (PC-3 prostate): 34.3 µM | TGI (SK-MEL-2 melanoma): 36.7 µM | TGI (MDA-MB-435): 25.2 µM | TGI (OVCAR-8 ovarian): 34.1 µM | TGI (HT29 colon): 22.6 µM | TGI (UO-31 renal): 25.2 µM | TGI (SK-OV-3 ovarian): 31.6 µM | TGI (A549 NSCLC): 35.6 µM | TGI (OVCAR-3 ovarian): 17.2 µM | TGI (NCI/ADR-RES ovarian): 40.3 µM | TGI (HOP-62 NSCLC): 33.7 µM | TGI (SF-268 CNS): 31.2 µM | TGI (LOX IMVI melanoma): 27.9 µM | TGI (UACC-62 melanoma): 32 µM | TGI (MALME-3M melanoma): 32 µM | TGI (CAKI-1 renal): 31.5 µM | TGI (NCI-H226 lung): 33.6 µM | TGI (SF-539 CNS): 30.3 µM | TGI (NCI-H23 lung): 26.7 µM | TGI (DU-145 prostate): 33.8 µM | TGI (ACHN renal): 25.8 µM | TGI (K-562 leukemia): 14.2 µM | TGI (786-0 renal): 24.9 µM | TGI (RXF 393 renal): 31.4 µM | TGI (IGROV1 ovarian): 23.7 µM | TGI (T-47D breast): 37.1 µM | TGI (NCI-H460 lung): 36.9 µM
